Measurements taken from patent US10538555B2, “Macrocyclic inhibitors of the PD-1/PD-L1 and CD80(B7-1)/PD-L1 protein/protein interactions” (BRISTOL-MYERS SQUIBB COMPANY, priority 2014, dated 2020).
Where a SMILES comes first, the peptide text is derived from it. Bridges are numbered along the chain shown (N, C = ends). [ ]: non-standard residue; d: D form. Hyp = O=C(O)[C@@H]1C[C@@H](O)CN1; NMeNle = CCCC[C@H](NC)C(=O)O; NMeA = CN[C@@H](C)C(=O)O; Dab = NCC[C@H](N)C(=O)O

target: T1, Human PD-L1/PD-1 (Homo sapiens, UniProt Q9NZQ7); assay: HTRF Human PD-L1/PD-1 binding assay (PD-1-Ig/PD-L1-His); settings: PD-L1-His 10 nM, PD-1-Ig 20 nM; class symbol; read-out: HTRF Human PD-L1/PD-1 Binding Assay IC50 Range
T1 construct: TVMV protease cleavage site (C); made in house; host or cells: HEK293T cells
Description: Methods for Testing the Ability of Macrocyclic Peptides to Compete for the Binding of PD-1 to PD-L1 Using Homogenous Time-Resolved Fluorescence (HTRF) Binding Assays
The ability of the macrocyclic peptides of the present disclosure to bind to PD-L1 was investigated using a PD-1/PD-L1 Homogenous Time-Resolved Fluorescence (HTRF) binding assay.
Homogenous Time-Resolved Fluorescence (HTRF) Assays of Binding of Soluble PD-1 to Soluble PD-L1. Soluble PD-1 and soluble PD-L1 refers to proteins with carboxyl-end truncations that remove the transmembrane-spanning regions and are fused to heterologous sequences, specifically the Fc portion of the human immunoglobuling G sequence (Ig) or the hexahistidine epitope tag (His). All binding studies were performed in an HTRF assay buffer consisting of dPBS supplemented with 0.1% (w/v) bovine serum albumin and 0.05% (v/v) Tween-20. For the PD-1-Ig/PD-L1-His binding assay, inhibitors were pre-incubated with PD-L1-His (10 nM final) for 15 m in 4 μl of assay buffer, followed by addition of PD-1-Ig (20 nM final) in 1 μl of assay buffer and further incubation for 15 m. PD-L1 fusion proteins from either human, cynomolgus macaques, or mouse were used. HTRF detection was achieved using europium crypate-labeled anti-Ig monoclonal antibody (1 nM final) and allophycocyanin (APC) labeled anti-His monoclonal antibody (20 nM final). Antibodies were diluted in HTRF detection buffer and 5 μl was dispensed on top of binding reaction. The reaction was allowed to equilibrate for 30 minutes and signal (665 nm/620 nm ratio) was obtained using an EnVision fluorometer. Additional binding assays were established between PD-1-Ig/PD-L2-His (20 and 5 nM, respectively), CD80-His/PD-L1-Ig (100 and 10 nM, respectively) and CD80-His/CTLA4-Ig (10 and 5 nM, respectively). Competition studies between biotinylated Compound No. 71 and human PD-L1-His were performed as follows. Macrocyclic peptide inhibitors were pre-incubated with PD-L1-His (10 nM final) for 60 minutes in 4 μl of assay buffer followed by addition of biotinylated Compound No. 71 (0.5 nM final) in 1 μl of assay buffer. Binding was allowed to equilibrate for 30 minutes followed by addition of europium crypated labeled Streptavidin (2.5 pM final) and APC-labeled anti-His (20 nM final) in 5 μl of HTRF buffer. The reaction was allowed to equilibrate for 30 m and signal (665 nm/620 nm ratio) was obtained using an EnVision fluorometer.
Recombinant Proteins. Carboxyl-truncated human PD-1 (amino acids 25-167) with a C-terminal human Ig epitope tag [hPD-1 (25-167)-3S-IG] and human PD-L1 (amino acids 18-239) with a C-terminal His epitope tag [hPD-L1([…])-tobacco vein mottling virus protease cleavage site (TVMV)-His] were expressed in HEK293T cells and purified sequentially by rProteinA affinity chromatography and size exclusion chromatography.

T1 sequence (Q9NZQ7 with tags, fused parts or gaps): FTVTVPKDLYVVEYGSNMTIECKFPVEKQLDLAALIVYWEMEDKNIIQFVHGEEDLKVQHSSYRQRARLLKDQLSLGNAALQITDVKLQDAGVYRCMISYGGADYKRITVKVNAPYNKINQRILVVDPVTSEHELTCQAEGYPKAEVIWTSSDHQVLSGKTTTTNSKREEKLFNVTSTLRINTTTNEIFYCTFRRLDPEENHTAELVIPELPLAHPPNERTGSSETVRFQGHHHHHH

IC50	SMILES
1000 to 10000 nM	CCCC[C@H]1C(=O)N(C)CC(=O)N[C@@H](CC(=O)O)C(=O)NC(C(C)c2ccccc2)C(=O)N(C)[C@@H](Cc2ccccc2)C(=O)N[C@@H](Cc2ccc(O)cc2)C(=O)N(C)CC(=O)N[C@@H](Cc2c[nH]c3ccccc23)C(=O)N[C@@H](Cc2ccc(O)cc2)C(=O)N[C@@H](CC(C)C)C(=O)N[C@H](C(=O)NCC(N)=O)CSCC(=O)N[C@@H](Cc2ccccc2)C(=O)N(C)[C@@H](Cc2ccccc2)C(=O)N1C (single isomer, unassigned) [Example 3230-A]
100 to 990 nM	CCCC[C@H]1C(=O)N(C)CC(=O)N[C@@H](CC(=O)O)C(=O)NC(C(C)c2ccccc2)C(=O)N(C)[C@@H](Cc2ccccc2)C(=O)N[C@@H](Cc2ccc(O)cc2)C(=O)N(C)CC(=O)N[C@@H](Cc2c[nH]c3ccccc23)C(=O)N[C@@H](Cc2ccc(O)cc2)C(=O)N[C@@H](CC(C)C)C(=O)N[C@H](C(=O)NCC(N)=O)CSCC(=O)N[C@@H](Cc2ccccc2)C(=O)N(C)[C@@H](Cc2ccccc2)C(=O)N1C (single isomer, unassigned) [Example 3230-B]
100 to 990 nM	CCCC[C@H]1C(=O)N(C)CC(=O)N[C@@H](CC(=O)O)C(=O)NC(C(C)c2ccccc2)C(=O)N(C)[C@@H](Cc2ccccc2)C(=O)N[C@@H](Cc2ccc(O)cc2)C(=O)N(C)CC(=O)N[C@@H](Cc2c[nH]c3ccccc23)C(=O)N[C@@H](Cc2ccc(O)cc2)C(=O)N[C@@H](CC(C)C)C(=O)N[C@H](C(=O)NCC(N)=O)CSCC(=O)N[C@@H](Cc2ccccc2)C(=O)N(C)[C@@H](Cc2ccccc2)C(=O)N1C (single isomer, unassigned) [Example 3230-C]
100 to 990 nM	CCCC[C@H]1C(=O)N(C)CC(=O)N[C@@H](CC(=O)O)C(=O)N[C@@H](C(C)C)C(=O)N(C)[C@@H](Cc2ccccc2)C(=O)N[C@@H](Cc2ccc(O)cc2)C(=O)N(C)CC(=O)NC(C)(Cc2c[nH]c3ccccc23)C(=O)N[C@@H](Cc2ccc(O)cc2)C(=O)N[C@@H](CC(C)C)C(=O)N[C@H](C(=O)NCC(N)=O)CSCC(=O)N[C@@H](Cc2ccccc2)C(=O)N(C)[C@@H](Cc2ccccc2)C(=O)N1C (single isomer, unassigned) [Example 3640-A]
100 to 990 nM	CCCC[C@H]1C(=O)N(C)CC(=O)N[C@@H](CC(=O)O)C(=O)N[C@@H](C(C)C)C(=O)N(C)[C@@H](Cc2ccccc2)C(=O)N[C@@H](Cc2ccc(O)cc2)C(=O)N(C)CC(=O)NC(C)(Cc2c[nH]c3ccccc23)C(=O)N[C@@H](Cc2ccc(O)cc2)C(=O)N[C@@H](CC(C)C)C(=O)N[C@H](C(=O)NCC(N)=O)CSCC(=O)N[C@@H](Cc2ccccc2)C(=O)N(C)[C@@H](Cc2ccccc2)C(=O)N1C (single isomer, unassigned) [Example 3640-B]

Further lines, the compound ahead of its results:

SMILES	IC50
CCCC[C@H]1C(=O)N(C)CC(=O)N[C@@H](CC(N)=O)C(=O)N[C@@H](C(C)C)C(=O)N(C)[C@@H](Cc2ccccc2)C(=O)N[C@@H](Cc2ccc(O)cc2)C(=O)N(C)CC(=O)N[C@@H](Cc2c[nH]c3ccccc23)C(=O)N[C@@H](Cc2ccc(O)cc2)C(=O)N[C@@H](CCCN)C(=O)N[C@H](C(=O)NCC(N)=O)CSCC(=O)N[C@@H](Cc2ccccc2)C(=O)N(C)[C@@H](Cc2ccncc2)C(=O)N1C (single isomer, unassigned) [Example 3638-A]	1000 to 10000 nM
CCCC[C@H]1C(=O)N(C)CC(=O)N[C@@H](CC(N)=O)C(=O)N[C@@H](C(C)C)C(=O)N(C)[C@@H](Cc2ccccc2)C(=O)N[C@@H](Cc2ccc(O)cc2)C(=O)N(C)CC(=O)N[C@@H](Cc2c[nH]c3ccccc23)C(=O)N[C@@H](Cc2ccc(O)cc2)C(=O)N[C@@H](CCCN)C(=O)N[C@H](C(=O)NCC(N)=O)CSCC(=O)N[C@@H](Cc2ccccc2)C(=O)N(C)[C@@H](Cc2ccncc2)C(=O)N1C (single isomer, unassigned) [Example 3638-B]	10 to 99.9 nM
CCCC[C@H]1C(=O)N(C)[C@@H](CCCC)C(=O)N[C@@H](CN)C(=O)N[C@H](C(=O)NCC(N)=O)CSCC(=O)N[C@@H](Cc2ccc(O)cc2)C(=O)N(C)[C@@H](C)C(=O)N[C@@H](CC(=O)O)C(=O)N2CCC[C@H]2C(=O)N[C@@H](Cc2c[nH]cn2)C(=O)N[C@@H](CCC(=O)O)C(=O)N2C[C@H](O)C[C@H]2C(=O)N[C@@H](Cc2c[nH]c3ccccc23)C(=O)N[C@@H](CCN)C(=O)N[C@@H](Cc2cn(CC(=O)O)c3ccccc23)C(=O)N1C (single isomer, unassigned) [Example 5203]	1 to 9.9 nM
CCCC[C@H]1C(=O)N(C)[C@@H](CCCC)C(=O)N[C@@H](CCCN)C(=O)N[C@H](C(=O)NCC(N)=O)CSCC(=O)N[C@@H](Cc2ccc(O)cc2)C(=O)N2CCC(C)(C)[C@H]2C(=O)N[C@@H](CC(N)=O)C(=O)N2CCCC2C(=O)N[C@@H](Cc2cnc[nH]2)C(=O)N[C@@H](CC(C)C)C(=O)N2C[C@H](O)C[C@H]2C(=O)N[C@@H](Cc2c[nH]c3ccccc23)C(=O)N[C@@H](CO)C(=O)N[C@@H](Cc2c[nH]c3ccccc23)C(=O)N1C (some centres unmarked) [Example 1240]	1000 to 10000 nM
CCCC[C@H]1C(=O)N(C)[C@@H](CCCC)C(=O)N[C@@H](C)C(=O)N[C@H](C(=O)NCC(N)=O)CSCC(=O)N[C@@H](Cc2ccc(O)cc2)C(=O)N(C)[C@@H](C)C(=O)N[C@@H](CC(N)=O)C(=O)N2CCC[C@H]2C(=O)N[C@@H](Cc2cnc[nH]2)C(=O)N[C@@H](CCN)C(=O)N2C[C@H](O)C[C@H]2C(=O)N[C@@H](Cc2c[nH]c3ccccc23)C(=O)N[C@@H](CO)C(=O)N[C@@H](Cc2c[nH]c3ccccc23)C(=O)N1C [Example 1245]	10 to 99.9 nM
CCCC[C@H]1C(=O)N(C)[C@@H](CCCC)C(=O)N[C@@H](C)C(=O)N[C@H](C(=O)NCC(N)=O)CSCC(=O)N[C@@H](Cc2ccc(O)cc2)C(=O)N(C)[C@@H](C)C(=O)N[C@@H](CC(=O)O)C(=O)N2CCC[C@H]2C(=O)N[C@@H](Cc2cnc[nH]2)C(=O)N[C@@H](CCCCN)C(=O)N2C[C@H](O)C[C@H]2C(=O)N[C@@H](Cc2c[nH]c3ccccc23)C(=O)N[C@@H](CO)C(=O)N[C@@H](Cc2c[nH]c3ccccc23)C(=O)N1C [Example 1247] ({CH2CO}-Y[NMeA]DPHK[Hyp]WSW[NMeNle][NMeNle]ACG-NH2; thioether N-14)	10 to 99.9 nM
CCCC[C@H]1C(=O)N(C)[C@@H](CCCC)C(=O)N[C@@H](C)C(=O)N[C@H](C(=O)NCC(N)=O)CSCC(=O)N[C@@H](Cc2ccc(O)cc2)C(=O)N(C)[C@@H](C)C(=O)N[C@@H](CCC(=O)O)C(=O)N2CCC[C@H]2C(=O)N[C@@H](Cc2cnc[nH]2)C(=O)N[C@@H](CCN)C(=O)N2C[C@H](O)C[C@H]2C(=O)N[C@@H](Cc2c[nH]c3ccccc23)C(=O)N[C@@H](CO)C(=O)N[C@@H](Cc2c[nH]c3ccccc23)C(=O)N1C [Example 1248] ({CH2CO}-Y[NMeA]EPH[Dab][Hyp]WSW[NMeNle][NMeNle]ACG-NH2; thioether N-14)	10 to 99.9 nM

same assay, conditions: PD-L1-His 10 nM, PD-1-Ig 20 nM; read-out: HTRF Human PD-L1/PD-1 Binding Assay IC50

IC50	SMILES
10000 nM	CCCC[C@H]1C(=O)N(C)CC(=O)N[C@@H](CC(=O)O)C(=O)NC(C(C)c2ccccc2)C(=O)N(C)[C@@H](Cc2ccccc2)C(=O)N[C@@H](Cc2ccc(O)cc2)C(=O)N(C)CC(=O)N[C@@H](Cc2c[nH]c3ccccc23)C(=O)N[C@@H](Cc2ccc(O)cc2)C(=O)N[C@@H](CC(C)C)C(=O)N[C@H](C(=O)NCC(N)=O)CSCC(=O)N[C@@H](Cc2ccccc2)C(=O)N(C)[C@@H](Cc2ccccc2)C(=O)N1C (single isomer, unassigned) [Example 3230-D]
1000 nM	CCCC[C@H]1C(=O)N(C)[C@@H](CCCC)C(=O)N[C@@H](CCCN)C(=O)N[C@H](C(=O)NCC(N)=O)CSCC(=O)N[C@@H](Cc2ccc(O)cc2)C(=O)N2CCC[C@]2(C)C(=O)N[C@@H](CC(N)=O)C(=O)N2CCCC2C(=O)N[C@@H](Cc2cnc[nH]2)C(=O)N[C@@H](CC(C)C)C(=O)N2C[C@H](O)C[C@H]2C(=O)N[C@@H](Cc2c[nH]c3ccccc23)C(=O)N[C@@H](CO)C(=O)N[C@@H](Cc2c[nH]c3ccccc23)C(=O)N1C (some centres unmarked) [Example 1241]
